Here are results for two compounds from PMC9629855, “Development of ASIC1a ligand-gated ion channel drug screening assays across multiple automated patch clamp platforms” (Frontiers in Molecular Neuroscience, 2022).

Set-up in all cases: host or cells: CHO (tetracycline-inducible)
Assay [1] addresses T1, hASIC1a (Homo sapiens, UniProt P78348).
T1 sequence (P78348 1-528): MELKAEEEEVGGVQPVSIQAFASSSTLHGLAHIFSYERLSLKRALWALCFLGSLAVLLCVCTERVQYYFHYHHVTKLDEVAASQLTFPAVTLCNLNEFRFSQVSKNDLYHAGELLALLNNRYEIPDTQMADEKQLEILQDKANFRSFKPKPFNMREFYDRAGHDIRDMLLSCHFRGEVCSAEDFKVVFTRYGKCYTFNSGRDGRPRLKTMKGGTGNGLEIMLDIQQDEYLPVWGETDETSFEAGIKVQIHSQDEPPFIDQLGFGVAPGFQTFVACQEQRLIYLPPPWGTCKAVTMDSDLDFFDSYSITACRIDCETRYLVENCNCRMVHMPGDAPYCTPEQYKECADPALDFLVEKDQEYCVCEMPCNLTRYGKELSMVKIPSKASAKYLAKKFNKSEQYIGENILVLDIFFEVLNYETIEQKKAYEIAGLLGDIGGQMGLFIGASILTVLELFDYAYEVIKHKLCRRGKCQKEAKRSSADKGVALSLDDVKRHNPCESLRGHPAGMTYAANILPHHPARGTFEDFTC
As to the kind of experiment: SyncroPatch 384i APC, CHO hASIC1a, puff / stacked puff application. It counts as cell-based. As to conditions: pH 6.5. As to the method: CHO cells expressing ASIC1a (Charles River) were induced using tetracycline 3–6 h prior to dissociation into a cell suspension.
For recordings of stability and pharmacology using a bolus or “puff” application of ligand, 5 μl of the agonist solution was aspirated and applied to the cell; liquid dispense speed can be set between 1 and 100 μl/s, and a setting of 40 μl/s was used in these experiments. Following agonist addition, 50 μl of the total 90 μl volume in each well is then taken up by the tip to remove most of the agonist solution from the cell. […] For stability experiments, pH 6.5 was applied to each cell followed by a wash with pH 7.4 solution and a wait of 140 s to remove agonist and reverse any desensitization, before a second application of pH 6.5 was made. This sequence was repeated 6–7 times on each cell. For pharmacology experiments, ASIC1a responses were evoked 3 times by pH 6.5 application followed by pre-incubation in the inhibitor for 140 s, after which the inhibitor was co-applied with a pH 6.5 stimulus. Cumulative concentration responses were obtained for each well using 3–4 incrementing concentrations of inhibitor. Concentration response curves for each well were constructed and mean ± S.E.M values for IC50 are given.
To assess the pH sensitivity of ASIC1a responses, pipette tips were loaded with 5 μl of pH 7.4 wash solution followed by 5 μl of activating extracellular solution (pH 7.2 to 4.8). For each sweep, the baseline current was recorded for 1 s in pH 7.4 control solution before the application of the 5-μl activating solution, and then the pH 7.4 wash solution was dispensed with a delay of 1 s to allow for recording of channel opening and desensitization in the presence of ligand before ligand wash-off. Application of the wash solution was followed by aspiration of liquid (50 μl of 90 μl total volume) from each well after a delay of 4 s, before a second wash step with pH 7.4 was performed prior to the application of the next activating pH (interval between stimuli 140 s). Each well received an addition of pH 6.5 solution followed by application of a test pH, and this sequence was repeated a second time to enable data from each cell to be normalized to the control pH 6.5 addition. The pH response curve was constructed across multiple wells with replicates of 48. Pharmacology experiments were performed as described above in “puff” application.
Concentration response curves were fit using a Hill Equation. Statistical comparison of IC50 values for Benzamil was performed using a Student’s t test in Igor Pro 8 (Wavemetrics). […] Z-Factor (Z‘) is calculated using the equation: […]
In general terms: The patch-clamp technique gives a direct electrical read-out from membranes.

The target in assay [2] is T1, hASIC1a. Description: QPatch 48 APC, CHO hASIC1a, multi-hole (10 hole X-plate) recordings. Format: cell-based. As to conditions: multi-hole recordings, QPatch 48. As to the method:
(§1) CHO hASIC1a cells were cultured according to vendor instructions (B-SYS GmbH) and HEK cells using standard in-house methods. Both cell lines were harvested using optimized protocols and re-suspended in serum-free media (Gibco CHO-S-SFM from Thermo Fisher Scientific for CHO cells, and Ex-Cell 302 from Merck Sigma-Aldrich for HEK cells) to obtain a suspension of cells with smooth membranes and little debris, before transfer to the automated cell hotel consisting of a 60 ml plastic container (Sophion SB2050) and a magnetic stir bar to prevent cell clumping. An aliquot of cells is then aspirated into a 1 ml microcentrifuge tube and spun down (typically 150 g for 2.5 min) and the supernatant discarded before a user-defined volume of external solution is added by the robot and the cells re-suspended to achieve the desired final cell suspension density before application to primed QPlates. Cell capture, sealing and whole-cell access was achieved using optimized QPatch protocols before currents were recorded using a holding potential of −60 mV. […] Cells were washed three times with external pH 7.3 solution (5 μl) between applications of activating acidic solution to establish a stable ASIC1a current baseline. […] Each concentration of reference compound was applied to each cell before (i.e., during each pH 7.3 application period) and during each pH stimulus (IC50 mode). Thus, each concentration of test compound was pre-incubated with cells for at least 2 min before, and then during each acidic solution challenge, before wash-off in a neutral pH 7.3 solution that contained the next concentration of the same compound. Cells were allowed at least 2 min between applications of acidic solution to enable ASIC1a receptors to recover from desensitization.
(§2) Concentration-response xC50 curves from Patchliner and QPatch 48 experiments were calculated by plotting %inhibition (antagonists) or activation (pH) data against concentration in Prism software (GraphPad), using the variable sigmoidal dose-response function to fit the Hill equation with theoretical minimum block of 0% and maximum block of 100% and a free constant for Hill slope.
Before employing a more efficient multi-hole assay it is important to establish that this variant of the APC whole-cell recording format returns the same biophysics and pharmacology as single cell recordings. To this end we ran some of the reference compounds detailed above in 10 hole “X-plate” mode on the QPatch 48.

Assay [3] addresses T1, hASIC1a. Description: cell-based. As to conditions: pH 6.5 agonist, QPatch 48 single hole. As to the method: as §1, §2
In addition, this protocol is designed to avoid tachyphylaxis associated with a more acidic pH stimulus, and it allows the development of a ligand-gated ASIC1a channel assay that can distinguish between agonists, partial agonists and antagonists. […] Compounds were tested using the cumulative concentration-response assay format shown in Figure 5A, which includes a 2 min pre-incubation period for each concentration to allow test samples to reach and equilibrate with their binding site(s) in the pore or large extracellular binding domain of ASIC1 receptor trimers. Agonist effects can also be detected during this period as membrane current data is recorded after every liquid addition. […] Mean inhibition data for each test sample is plotted against Log[compound] and fit with a concentration-response function.

The mark [4] stands for this setting: 1X single hole chip, Stacked Puff.
Where [5] appears, read: 4X multi-hole chip, Stacked Puff.

Several values for one entry are separate records, joined by “and”; a condition that tells them apart may be missing. Identical values can stand only once.

By Hill slope is commonly meant the slope factor of the fitted curve. As usually defined, the IC50 is the concentration at which inhibition is half-maximal.

Regarding `N=C(N)NC(=O)c1nc(Cl)c(N)nc1N` [Amiloride], the Hill slope is 1.20 ± 0.05 on hASIC1a [1] (1X single hole chip, Puff); 1.39 ± 0.02 on hASIC1a [1] (setting [4]); 1.19 ± 0.02 and 1.14 ± 0.01 on hASIC1a [1] (4X multi-hole chip, Puff); 1.24 ± 0.02 at hASIC1a [1] (setting [5]); 0.9 on hASIC1a [3]. For the same compound, the “Hill slope (Hn)” value on hASIC1a [2] is on record as 0.91.
As to `NC(=NCc1ccccc1)NC(=O)c1nc(Cl)c(N)nc1N` [Benzamil], the Hill slope is 1.07 ± 0.02 on hASIC1a [1] (1X single hole chip, Puff); 1.26 ± 0.03 at hASIC1a [1] (setting [4]); 1.18 ± 0.03 and 1.12 ± 0.02 at hASIC1a [1] (4X multi-hole chip, Puff); 1.12 ± 0.02 at hASIC1a [1] (setting [5]); 1.1 on hASIC1a [3]. The IC50 is 1370 nM on hASIC1a [1] (1X single hole chip, Puff); 2480 ± 180 nM on hASIC1a [1] (setting [4]); 1430 nM and 1470 nM at hASIC1a [1] (4X multi-hole chip, Puff); 2200 ± 80 nM against hASIC1a [1] (setting [5]); 3490 nM at hASIC1a [2] (read-out: IC50); 4660 nM at hASIC1a [3] (2 min pre-incubation, read-out: IC50 potency). At hASIC1a [2], the “Hill slope (Hn)” value stood at 1.18.
